# Assay results: EP2392327A1, “Use of orlistat for the anti-parasitic treatment of a parasitic disease” (Universitätsmedizin der Johannes Gutenberg-Universität Mainz, priority 2010, dated 2011)
# Like-named read-outs stand apart in the source and are kept apart here.
# Experiments:
# [1] = within the physiological pH range; cited from earlier work
# HCT-8 cells = test: Cytotoxicity in MTS/PMS assay on HCT-8 cells; type: cell-based; details: HCT-8 cultures, 48 hrs
# Procedure: Cells were passaged in maintenance medium at 37°C in a 6% CO2/94% humidified air incubator.
# Cytotoxicity of Orlistat was tested in an MTS/PMS assay (Hommer et al., 2003). Orlistat stock solution and DMSO solvent (control) were diluted in culture medium and serial dilutions were applied to HCT-8 cultures for 48 hrs.
# Cryptosporidium parvum [2] = test: In vitro inhibition of the development of Cryptosporidium parvum in HCT-8 cells (cell culture-based enzyme-immune assay)
# Procedure: In a cell culture-based enzyme-immune assay increasing concentrations of Orlistat (1 - 15 µM) diluted in culture medium were tested for the inhibition of the development of Cryptosporidium parvum. The parasites were allowed to develop in HCT-8 cells for 48 hrs. The optical readings were converted into parasite growth relative to mean of the controls [%]. […] Orlistat (# 04139, Sigma, Deisenhofen, Germany) was dissolved in DMSO at 10 mM (stock solution). […] Cells were passaged in maintenance medium at 37°C in a 6% CO2/94% humidified air incubator. HCT-8 cells were seeded in 96-well culture plates and infected with Cryptosporidium parvum oocysts (IOWA strain) as described (Hommer et al., 2003). At 2 hrs post infection (p.i.) non-invaded parasites were removed by washing. Orlistat diluted in culture medium or medium alone (negative control) were added. After a total of 48 hrs p.i. culture plates were washed with PBS and fixed with methanol for 15 min. Intracellular stages of Cryptosporidium parvum were detected by an enzyme-immune assay using a monoclonal antibody (McDonald et al., 1995) as described previously (Hommer et al., 2003). Experiments were performed in six-fold replica. Optical density (OD) readings were corrected by the OD of non-infected HCT-8 cells. The means of the infected controls without Orlistat were taken as 100% growth rate. […]
# Cryptosporidium parvum [3] = details: 1.5x10^6 parasites, 5.0 mg Orlistat per gram dry matter
# Source text: Error bars represent standard deviations. […] Error bars represent standard deviations.
# [4] = cited from earlier work
smiles,measurement,setting,value
CCCCCCCCCCC[C@@H](C[C@@H]1OC(=O)[C@H]1CCCCCC)OC(=O)[C@H](CC(C)C)NC=O [Orlistat],pKa,[1],no pKa within the physiological pH range
same,cytotoxic effect on HCT-8 cells detected at concentrations,HCT-8 cells,> 20 µM
same,inhibition at 15 µM,"Cryptosporidium parvum [2]; Cryptosporidium parvum, 15 µM, 48 hrs p.i., HCT-8 host cells, compared to the infected but untreated controls, read-out: inhibition rate",> 90%
same,reduction of parasite development in the HCT-8 host cells,"Cryptosporidium parvum [2]; all Orlistat concentrations (1 - 15 µM), p < 0.0002","concentration dependent, statistically significant reduction"
same,reduction of total parasite excretion by a factor,"Cryptosporidium parvum [3]; interferon-gamma deficient mice, p < 0.0006",125
same,reduction of total parasite excretion by a factor,"Cryptosporidium parvum [3]; interleukin-12 deficient mice, p < 0.008",over 80
same,solubility in chloroform,[4]; chloroform,freely soluble
same,solubility in methanol and ethanol,[4]; methanol and ethanol,very soluble
same,solubility in water,[4]; water,practically insoluble
